Reference: patent publication US9144570B2, “Method to enhance delivery of glutathione and ATP levels in cells” (Max International LLC, priority 2004, dated 2015)
Entries after “also recorded” stand apart in the source; their conditions may differ.

Columns and labels:
mice [1] = conditions: cited from earlier work
Rat hepatocytes [2] = assay: Inhibitory effect of BSO on GSH elevation elicited by L-cysteine prodrugs in rat hepatocytes; assay type: cell-based
Experimental: (§1) Rat hepatocytes were isolated following the methods of P. O. Seglen, Exper. Cell Res., 74, 450 (1972). After final plating, the hepatocytes were maintained in culture for 24 hr prior to use. Only primary cultures were used throughout the studies. […] Total GSH content (GSH+GSSG) was determined by a modification of the DTNB [5,5′-dithiobis(2-nitrobenzoic acid)] glutathione reductase recycling method of F. Tietze, Anal. Biochem., 27, 502 (1969). The GSH concentration in the sample was quantified by determining the cycling rate (ΔOD at 412 nm/min) of the sample.

human subjects = conditions: administered directly to human subjects, wide dosage ranges; cited from earlier work
canine heart = conditions: cited from earlier work
healthy human subjects = conditions: oral, 8-10 g per day, adult; cited from earlier work
tumor-bearing CDF1 mice = conditions: 8 mmol/kg i.p., cited from earlier work
mice [3] = conditions: RibCys; 1 g/kg in mice; cited from earlier work
Rat hepatocytes [4] = assay: Glutathione content of isolated rat hepatocytes after incubation with L-cysteine prodrugs; assay type: cell-based; conditions: for [GSH] Rel. to Controls. / [GSH] ± SE: 4-hr incubation, RibCys 1.0 mM, NAC 2.5 mM; for [GSH] ± SE: total GSH (GSH+GSSG)
Experimental: as §1

mice [5] = conditions: RibCys 8 mmol/kg; cited from earlier work
[6] = prodrug 1.0 mM, cells pre-exposed to BSO 0.2 mM

O=C1N[C@H](C(=O)O)CS1 [L-2-oxothiazolidine-4-carboxylate]
protection of mice from hepatotoxic dosages of acetaminophen (mice [1]): protect mice from heptatotoxic dosages of acetaminophen

CC1N[C@H](C(=O)O)CS1 (stereo partly drawn) [2(R,S)-methyl-thiazolidine-4R-carboxylate]
protection of mice from hepatotoxic dosages of acetaminophen (mice [1]): protect mice from heptatotoxic dosages of acetaminophen

CCCCS(=N)(=O)CCC(N)C(=O)O (stereo not drawn) [BSO, Buthionine Sulfoximine]
[GSH] Rel. to Controls. (Rat hepatocytes [2]; BSO 0.2 mM alone, no prodrug): 0.5 | [GSH] ± SE (Rat hepatocytes [2]; BSO 0.2 mM alone, no prodrug): 18.4 ± 2.08 nmol/10^6 cells

O=C[C@H](O)[C@H](O)[C@H](O)CO [ribose]
toxicity (human subjects): essentially non-toxic | decrease in the ATP recovery time (canine heart; 80 mM ribose in normal saline, about 1 ml/min for about 24.0 hours, about 550-700 mg/kg): eight-fold decrease | recovery of ATP levels in heart recovering from ischemia (canine heart; intravenous perfusion): recovery of ATP levels is enhanced | ATP levels in dogs subjected to ischemia (heart attack model) (canine heart; ribose about 3 g/day for at least 5 days): effectively restored and maintained ATP levels | exercise capacity (healthy human subjects): increase exercise capacity

O=C(O)[C@@H]1CSC(C(O)C(O)C(O)CO)N1 (stereo partly drawn) [RibCys, 2(R,S)-D-ribo-1′,2′,3′,4′-Tetrahydroxybutylthiazolidine-4(R)-carboxylic Acid]
GSH in the liver compared to untreated controls (tumor-bearing CDF1 mice; 16-h time point): 1.5 fold | GSH in bladder relative to controls (tumor-bearing CDF1 mice; maximal GSH content): 2.1 fold | GSH in muscle relative to control animals (tumor-bearing CDF1 mice; maximal GSH content): 2.5 times | Kidney GSH relative to control values (tumor-bearing CDF1 mice; maximal at 16 h): 1.6 times control values | GSH in implanted L1210 tumors relative to controls (tumor-bearing CDF1 mice): 1.2 fold | protection against acetaminophen hepatic and renal toxicity (mice [1]; RibCys, 2 g/kg in mice): effective to protect against acetaminophen-induced hepatic and renal toxicity; also recorded: protect mice against acetaminophen hepatic and renal toxicity | protection against radiation-induced bowel injury (mice [3]): protect the large and small bowel against radiation injury; also recorded: protect mice against irradiation-induced bowel injury | [GSH] Rel. to Controls. (Rat hepatocytes [2]; [6]): 0.5 | [GSH] ± SE (Rat hepatocytes [2]; [6]): 16.2 ± 3.60 nmol/10^6 cells | [GSH] Rel. to Controls. (Rat hepatocytes [4]): about 1.7 | [GSH] Rel. to Controls. (Rat hepatocytes [4]; listed as RibCys (Ia)): 1.7 | [GSH] ± SE (Rat hepatocytes [4]): 61.2 ± 1.52 nmol/10^6 cells | protection of mice exposed to cyclophosphamide (mice [5]): deliver effective protective amounts of cysteine to mice exposed to cyclophosphamide

CCCCCC1N[C@H](C(=O)O)CS1 (stereo partly drawn) [2(R,S)-n-pentyl-thiazolidine-4R-carboxylate]
protection of mice from hepatotoxic dosages of acetaminophen (mice [1]): protect mice from heptatotoxic dosages of acetaminophen

CC(=O)N[C@@H](CS)C(=O)O [N-Acetyl-L-cysteine (NAC), N-Acetyl-L-cysteine]
protection of mice from hepatotoxic dosages of acetaminophen (mice [1]): protect mice from heptatotoxic dosages of acetaminophen | [GSH] Rel. to Controls. (Rat hepatocytes [2]; [6]): 0.7 | [GSH] ± SE (Rat hepatocytes [2]; [6]): 25.5 ± 1.59 nmol/10^6 cells | [GSH] Rel. to Controls. (Rat hepatocytes [4]): 1.3 | GSH levels raised by (Rat hepatocytes [4]; NAC, 2.5 times the concentration of the thiazolidine prodrugs): 30% | [GSH] ± SE (Rat hepatocytes [4]): 45.8 ± 1.27 nmol/10^6 cells

CCCC1N[C@H](C(=O)O)CS1 (stereo partly drawn) [2(R,S)-n-propyl-thiazolidine-4R-carboxylate]
protection of mice from hepatotoxic dosages of acetaminophen (mice [1]): protect mice from heptatotoxic dosages of acetaminophen
